Details: instrument: DT, single field, calibrated with Agilent tune mix (Agilent)

| Compound | collision cross section (N2) ([M+H]+) [Å²] | collision cross section (N2) ([M-H]-) [Å²] | further results |
| --- | --- | --- | --- |
| Cc1cc2nc3c(=O)[nH]c(=O)nc-3n(C[C@H](O)[C@H](O)[C@H](O)COP(=O)(O)OP(=O)(O)OC[C@H]3O[C@@H](n4cnc5c(N)ncnc54)[C@H](O)[C@@H]3O)c2cc1C [Flavin adenine dinucleotide] | 247.3 |  |  |
| Nc1nc(=O)c2c([nH]1)NCC(CNc1ccc(C(=O)N[C@@H](CCC(=O)O)C(=O)O)cc1)N2C=O (some centres not stated) [Folinic acid] | 196.9 | 196.26 |  |
| O=CNc1ccccc1C(=O)O [Formylanthranilic acid] |  | 127.28 | collision cross section (N2) ([M+H-H2O]+): 125.7 Å² |
| N[C@@H](CCC(=O)N[C@@H](CS)C(=O)O)C(=O)O [Gamma-Glutamylcysteine] | 157.7 |  |  |
| O=C(O)c1cc(O)ccc1O [Gentisic acid] |  | 122.67 |  |
| CC(C)=CCC/C(C)=C/COP(=O)(O)OP(=O)(O)O [Geranyl diphosphate] |  |  | collision cross section (N2) ([M-H2O-H]-): 161.5 Å² |
| O=C(O)CCCC(=O)O [Glutaric acid] |  | 120.08 |  |
| CC(C)(COP(=O)(O)OP(=O)(O)OC[C@H]1O[C@@H](n2cnc3c(N)ncnc32)[C@H](O)[C@@H]1OP(=O)(O)O)[C@@H](O)C(=O)NCCC(=O)NCCSC(=O)CCCC(=O)O [Glutaryl-CoA] | 260.5 | 252.39 |  |
| CC(C)C[C@H](NC(=O)CN)C(=O)O [Glycyl-L-leucine] | 149.5 | 142.07 |  |
| NCC(=O)N1CCCC1C(=O)O (configuration not stated) [Glycylproline] | 136.4 | 134.59 |  |
| Nc1nc(=O)c2ncn([C@@H]3O[C@H](COP(=O)(O)O)[C@@H](O)[C@H]3O)c2[nH]1 [Guanosine 5'-monophosphate] | 178.9 |  |  |
| CCCCCCCCCCCCCCCCC(=O)O [Heptadecanoic acid] |  | 170.78 |  |
| CCCCCC(=O)NCC(=O)O [Hexanoylglycine] |  | 144.64 |  |
| O=C(O)Cc1cc(O)ccc1O [Homogentisic acid] |  |  | collision cross section (N2) ([M+H-H2O]+): 135.9 Å² |
| CN(C)CCc1ccc(O)cc1 [Hordenine] | 137.8 | 143.21 |  |
| CC(C)C[C@H](O)C(=O)O [Hydroxyisocaproic acid] |  | 126.06 |  |
| O=C(O)/C=C/c1c[nH]c2ccccc12 [Indole-3-acrylic acid] |  | 134.53 |  |
| O=C(O)C(=O)Cc1c[nH]c2ccccc12 [Indole-3-pyruvic acid] |  | 138.82 |  |
| C=C(C)CCOP(=O)(O)OP(=O)(O)O [Isopentenyl pyrophosphate] |  | 141.71 |  |

| Compound | collision cross section (N2) ([M+H]+) [Å²] | collision cross section (N2) ([M-H]-) [Å²] | further results |
| --- | --- | --- | --- |
| N[C@@H](CC(=O)O)C(=O)N[C@@H](Cc1ccccc1)C(=O)O [L-Aspartyl-L-phenylalanine] | 164.9 |  | collision cross section (N2) ([M+Na-2H]-): 162.34 Å² |
| NCCC(=O)N[C@@H](Cc1cnc[nH]1)C(=O)O [L-Carnosine] | 151 | 149.72 |  |
| NC(=O)NCCC[C@H](N)C(=O)O [L-Citrulline] | 138 |  |  |
| N[C@@H](CCSC[C@H](N)C(=O)O)C(=O)O [L-Cystathionine] | 147 | 139.51 |  |
| O=C1O[C@H]([C@@H](O)CO)[C@H](O)[C@@H]1O [L-Gulonic gamma-lactone] |  | 131.6 | collision cross section (N2) ([M+Na]+): 140.6 Å² |
| Nc1ccccc1C(=O)C[C@H](N)C(=O)O [L-Kynurenine] | 149.1 |  |  |
| O=C(O)[C@@H]1CCCCN1 [L-Pipecolic acid] | 127.4 | 126.71 |  |
| O=C1CC[C@@H](C(=O)O)N1 [L-Pyroglutamic acid] | 130.6 |  |  |
| N[C@@H](CCCCN[C@@H](CCC(=O)O)C(=O)O)C(=O)O [L-Saccharopine] | 159.8 |  | collision cross section (N2) ([M+2Na-3H]-): 163.17 Å² |
| N[C@@H](CCS(=O)(=O)O)C(=O)O [L-homocysteic acid] | 140.3 |  | collision cross section (N2) ([M+Na-2H]-): 132.56 Å² |
| CC(C)CCC[C@@H](C)[C@H]1CC[C@H]2C3=CC[C@H]4C[C@@H](O)CC[C@]4(C)[C@H]3CC[C@]12C [Lathosterol] |  |  | collision cross section (N2) ([M+H-H2O]+): 204.5 Å² |
| NC(=O)CCCCC1CCSS1 (configuration not stated) [Lipoamide] |  |  | collision cross section (N2) ([M+Na]+): 150.5 Å² |
| O=P(O)(O)OC[C@H]1OC(O)[C@@H](O)[C@@H](O)[C@@H]1O (some centres not stated) [Mannose-6-phosphate] |  |  | collision cross section (N2) ([M+Na]+): 155.8 Å² |
| C[N+](C)(C)CCCC[C@H](N)C(=O)[O-] [N6,N6,N6-Trimethyl-L-lysine] | 142 |  |  |
| CNCCCC[C@H](N)C(=O)O [N6-Methyl-L-lysine] | 132.5 | 134.21 |  |
| CC(=O)N[C@@H](Cc1ccc(O)cc1)C(=O)O [N-Acetyl-L-tyrosine] |  | 149.44 | collision cross section (N2) ([M+Na]+): 154.5 Å² |
| CC(=O)NCCCCCN [N-Acetylcadaverine] | 132.9 | 131.77 |  |
| CC(=O)N[C@H]1C(OP(=O)(O)O)O[C@H](CO)[C@@H](O)[C@@H]1O (some centres not stated) [N-Acetylglucosamine 1-phosphate] |  | 156.42 | collision cross section (N2) ([M+Na]+): 166.6 Å² |
| CC(=O)N[C@@H]1C(O)O[C@H](CO)[C@@H](O)[C@@H]1O (some centres not stated) [N-Acetylmannosamine] |  |  | collision cross section (N2) ([M+Na]+): 149.9 Å² |

| Compound | collision cross section (N2) ([M+H]+) [Å²] | collision cross section (N2) ([M-H]-) [Å²] | further results |
| --- | --- | --- | --- |
| CC(=O)NCCc1c[nH]c2ccc(O)cc12 [N-Acetylserotonin] | 149.8 | 148.65 |  |
| CCCCCCCCCCCCC/C=C/[C@@H](O)[C@H](CO)NC(=O)CCCCCCCCCCCCCCCCC [N-Stearoylsphingosine] |  | 248.67 | collision cross section (N2) ([M+Na]+): 256.4 Å² |
| CN(C)C(N)=NCCC[C@H](N)C(=O)O [NG,NG-dimethyl-L-arginine] | 143.5 |  |  |
| CCCCCCCC/C=C\CCCCCCCCCCCCCC(=O)O [Nervonic acid] |  | 196.32 | collision cross section (N2) ([M+H-H2O]+): 196.8 Å² |
| NC(=O)c1ccc[n+]([C@@H]2O[C@H](COP(=O)([O-])OP(=O)(O)OC[C@H]3O[C@@H](n4cnc5c(N)ncnc54)[C@H](O)[C@@H]3O)[C@@H](O)[C@H]2O)c1 [Nicotinamide adenine dinucleotide (NAD)] | 226.7 |  |  |
| O=C(O)c1ccc[n+]([C@@H]2O[C@H](COP(=O)(O)O)[C@@H](O)[C@H]2O)c1 [Nicotinate D-ribonucleotide] | 164.8 |  |  |
| Nc1ncnc2c1ncn2[C@@H]1O[C@H](COP(=O)(O)OP(=O)(O)OC[C@H]2O[C@@H]([n+]3cccc(C(=O)O)c3)[C@H](O)[C@@H]2O)[C@@H](O)[C@H]1O [Nicotinic acid adenine dinucleotide] |  |  | collision cross section (N2) ([M+2Na-3H]-): 238.49 Å² |
| O=C(O)CNC(=O)c1cccnc1 [Nicotinuric acid] | 143.6 | 138.08 |  |
| N[C@@H](CCOP(=O)(O)O)C(=O)O [O-Phospho-L-homoserine] |  |  | collision cross section (N2) ([M+Na]+): 141.6 Å² |
| CCCCCCCC/C=C\CCCCCCCC(=O)SCCNC(=O)CCNC(=O)[C@H](O)C(C)(C)COP(=O)(O)OP(=O)(O)OC[C@H]1O[C@@H](n2cnc3c(N)ncnc32)[C@H](O)[C@@H]1OP(=O)(O)O [Oleoyl-CoA] | 299.4 | 298.79 |  |
| O=c1nc2[nH][nH]cc-2c(=O)[nH]1 [Oxypurinol] | 126.7 | 120.1 |  |
| CC(C)(CO)[C@@H](O)C(=O)NCCC(=O)NCCS [Pantetheine] |  |  | collision cross section (N2) ([M+H-H2O]+): 164.6 Å²; collision cross section (N2) ([M+Na-2H]-): 164.94 Å² |
| CC(C)(CO)[C@@H](O)C(=O)NCCCO [Pantothenol] | 144.7 | 141.49 |  |
| CCCCCCCCC(=O)O [Pelargonic acid] |  | 143.33 |  |
| CCCCCCCCCCCCCCC(=O)O [Pentadecanoic Acid] |  | 162.72 |  |
| O=C(O)C#Cc1ccccc1 [Phenylpropiolic acid] |  |  | collision cross section (N2) ([M+H-H2O]+): 121.2 Å² |
| O=C(O)CNC(=O)CCc1ccccc1 [Phenylpropionylglycine] |  | 153.3 | collision cross section (N2) ([M+Na]+): 145.5 Å² |
| O=C(O)CCCCCC(=O)O [Pimelic acid] |  | 129.29 |  |

Reference: the C3SDB collision cross section collection
